Patent publication EP1258248A2, “Tumor treatments comprising a fumagillol derivative and a further antineoplastic agent” (TAP Pharmaceutical Products, Inc., priority 2001, dated 2002)
Read-outs that look alike come from different tables or passages of the source.

Legend:
metastatic cancer = assay: Phase I clinical study of continuously infused TNP-470 with paclitaxel and carboplatin (Example 3); assay type: in vivo, human; settings: TNP-470 2.5-10 mg/m^2 continuous infusion with or without 60 on Day 1 + 200-225 mg/m^2 paclitaxel; carboplatin AUC 5-6; 20 patients (different cancers)
Description: Twenty adult patients with metastatic cancer, including patients with lung cancer, were treated with TNP-470, using repeated continuous administrations of low doses (2.5-10 mg/m^2 over five days in combination with paclitaxel at doses of 200-225 mg/m^2 and carboplatin at a dose of AUC 5 or AUC 6 (as explained in Example 2 above) reported in row 7 of Table 1 above.
In this study, paclitaxel was administered first, followed by the carboplatin, then by TNP-470 administered intravenously via portable continuous infusion syringe pump (available from Sims-Deltec) at a dose of 2.5 -10 mg/m^2 for five days (115-120 hours). The five-day TNP-470 infusion was repeated every week.
In an ongoing cohort of this study, in addition to the described therapy, nine patients received 60 mg/m^2 TNP-470 as a one-hour intravenous infusion after infusion of paclitaxel and prior to infusion of carboplatin. This high-dose one-hour TNP-470 infusion was administered only when paclitaxel and carboplatin were administered.

[1] = tested on: advanced or metastatic cancer; assay: Phase I clinical study of intermittent TNP-470 combined with paclitaxel (Example 1), all patients; assay type: in vivo, human; settings: TNP-470 20-60 mg/m^2 + 135-225 mg/m^2 paclitaxel; 32 patients (different cancers)
Source text: (§1) TNP-470 administrations were repeated up to three times per week.
(§2) In the table, "response" refers to the percentage of patients whose tumor shrank by more than fifty percent; and "time to progression" refers to the median value of the length of time between the first dose of drug and observation that the tumor has grown by more than fifty percent, or that new tumors have appeared. Patients who stop taking the drug for other reasons are considered lost to follow-up for "time to progression" calculations. "Survival" in the table is a median value.

[2] = tested on: non-small cell lung cancer; assay: Phase I clinical study of intermittent TNP-470 with paclitaxel and carboplatin at a dose of AUC 5 (Example 2); assay type: in vivo, human
lung cancer [3] = assay: Phase I clinical study of intermittent TNP-470 combined with paclitaxel (Example 1), lung cancer patients; assay type: in vivo, human
Source text: as §1, §2

[4] = tested on: advanced or metastatic cancer; assay: Phase I clinical study of intermittent TNP-470 with paclitaxel and carboplatin at a dose of AUC 6 (Example 2)
Description: Doses of TNP-470 and paclitaxel were modified as described below.
Twenty adult patients with advanced or metastatic cancer, were treated with TNP-470 (synthesized according to the procedure of U.S. Patent No. 5,180,738) in a liquid cyclodextrin-containing formulation using repeated administrations of a high dose (60 mg/m^2) given over one hour, combined with 225 mg/m^2 paclitaxel given over three hours. Carboplatin was given at doses calculated to provide an "area-under-the-curve (AUC)" exposure of 5 or 6 mg/mL/min (hereinafter referred to as "a dose of AUC 5" or "a dose of AUC 6"), according to the formula Dose (mg) = AUC x (glomerular filtration rate + 25) [formula] as described in the package insert for carboplatin. Glomerular filtration rate was estimated by creatinine clearance, either measured or calculated from the patient's age, weight, gender and serum creatinine according to the Cockcroft-Gault equation Cr CL = ((140-age) x weight (kg)/72 x serum creatinine) x 1.0 if male or 0.85 if female [formula]
In this study, paclitaxel was administered first, followed one hour later by TNP-470, then finally by the carboplatin. TNP-470 administrations were repeated up to three thimes per week. Paclitaxel and carboplatin administrations were repeated every three weeks as the patients' condition permitted. Anti-emetic therapy and prophylaxis against paclitaxel hypersensitivity were administered in accordance with the paclitaxel package insert on days when paclitaxel and carboplatin were administered.
The patients' tumors were measured at the start of the study, after six to eight weeks of therapy, and at two-month intervals thereafter. Patients continued to receive TNP-470 until tumors grew by 50% or they experienced adverse events.
Three patients, all with non-small cell lung cancer, received TNP-470 in combination with paclitaxel and carboplatin (a dose of AUC 5).

lung cancer [5] = settings: no TNP-470, lung cancer historical data, cited from earlier work
[6] = TNP-470 20-60 mg/m^2 + 135-225 mg/m^2 paclitaxel, 15 patients (lung cancer only), median
[7] = TNP-470 60 mg/m^2 + 225 mg/m^2 paclitaxel, carboplatin AUC 6, 14 patients (different cancers)

SMILES | Responses (percentage) (metastatic cancer) | Responses (percentage) [1] | Responses (percentage) ([2]; TNP-470 60 mg/m^2 + 225 mg/m^2 paclitaxel, carboplatin AUC 5, 3 patients (lung cancer only)) | Survival (months) ([2]; TNP-470 60 mg/m^2 + 225 mg/m^2 paclitaxel, carboplatin AUC 5, 3 patients (lung cancer only), individual values) | tumor response in words ([2]; TNP-470 in combination with paclitaxel and carboplatin (a dose of AUC 5), three patients, all with non-small cell lung cancer) | tumor shrinkage ([2]; TNP-470 with paclitaxel and carboplatin, patients with non-small-cell lung cancer) | Survival (months) (lung cancer [3]; [6]) | Time to Progression (months) (lung cancer [3]; [6]) | Responses (percentage) (lung cancer [3]; TNP-470 20-60 mg/m^2 i.v. up to three times per week + 135-225 mg/m^2 paclitaxel every three weeks, 15 patients (lung cancer only)) | increase in survival over that previously reported for patients treated with paclitaxel alone (lung cancer [3]; TNP-470 + paclitaxel, patients with lung cancer, 14.3 months vs. 8 months) | tolerability of the combined therapy ([4]; TNP-470 60 mg/m^2 + 225 mg/m^2 paclitaxel + carboplatin at a dose of AUC 6, variety of different cancers, prior chemotherapy) | Survival (months) [4, 7] | Time to Progression (months) [4, 7] | Responses (percentage) ([4]; TNP-470 60 mg/m^2 + 225 mg/m^2 paclitaxel, carboplatin AUC 6, 14 patients (different cancers), prior chemotherapy, insufficient therapy to evaluate effectiveness) | Survival (months) (lung cancer [5]; median) | Time to Progression (months) (lung cancer [5]; median) | Responses (percentage) (lung cancer [5]; patients whose tumor shrank by more than fifty percent)
CO[C@@H]1[C@H](OC(=O)NC(=O)CCl)CC[C@]2(CO2)[C@H]1[C@@]1(C)O[C@@H]1CC=C(C)C [TNP-470, 6-O-(N-chloroacetylcarbamoyl) fumagillol] | 20 percentage | 28 percentage | 100 percentage | often, sixteen and more than twenty-two | All three had partial responses | experienced tumor shrinkage | 14.3 months | 5.4 months | 33 percentage | greater than 70% | tolerated the combined therapy poorly beyond two cycles of therapy | regimen not tolerated | regimen not tolerated | 0 percentage |  |  | 
CC(=O)O[C@H]1C(=O)[C@@]2(C)[C@H]([C@H](OC(=O)c3ccccc3)[C@]3(O)C[C@H](OC(=O)[C@H](O)[C@@H](NC(=O)c4ccccc4)c4ccccc4)C(C)=C1C3(C)C)[C@]1(OC(C)=O)CO[C@@H]1C[C@@H]2O [paclitaxel] |  |  |  |  |  |  |  |  |  |  |  |  |  |  | 6-9 months | ∼3 months | 20-30 percentage
